# Measured values reported in article PMC5469750, “Antibacterial and detoxifying activity of NZ17074 analogues with multi-layers of selective antimicrobial actions against Escherichia coli and Salmonella enteritidis” (Scientific Reports, 2017).
# Bridges are numbered along the chain shown (N, C = ends). Where no end group is shown, it is not given here.
# Columns and labels:
# S. aureus ATCC25923 = assay type: cell-based, Staphylococcus aureus; settings: microbroth dilution, MH medium, 1 × 10^5 CFU/ml, 37 °C, 18–24 h; representative of three independent experiments
# Protocol: (§1) The antimicrobial activity of peptides was determined by the microbroth dilution method. The bacterial strains were incubated in Mueller-Hinton (MH) medium at 37 °C overnight until the mid-log phase (OD600 nm reading of 0.5). Bacteria were diluted to 1 × 10^5 CFU/ml and added into 96-well plates, followed by the addition of serial dilutions of peptides (from 0.0625 to 128 μg/ml). The plates were incubated at 37 °C for 18–24 h. The MIC value was determined as the lowest peptide concentration at which no bacterial growth was observed. All tests were conducted in triplicate.
# [1] = LPS binding, BODIPY-TR-cadaverine (BC) displacement; settings: 100 μM; 40 μg/ml LPS and 10 μM BC in 50 mM Tris buffer pH 7.4, 1 h, room temperature
# Protocol: Equal volumes of 40 μg/ml LPS and 10 μM BC in 50 mM Tris buffer (pH 7.4) were mixed, added into 96-well plates and incubated in the dark for 4 h at room temperature. […] Fluorescence was then measured using a microplate reader (excitation/emission, 580/620 nm). The occupancy rate was calculated by the following equation: BC displacement rate (%) = (1 − (F0 − F)/(F0 − Fmax)) × 100, wherein F0 is the fluorescence intensity of the solution of BC alone; Fmax is the fluorescence intensity in the presence of LPS at the saturation concentration, and F is the intensity of LPS:BC mixtures at varying displacer concentrations.
# S. enteritidis CVCC3377 = assay type: cell-based, Salmonella enteritidis; settings: microbroth dilution, MH medium, 1 × 10^5 CFU/ml, 37 °C, 18–24 h; representative of three independent experiments
# Protocol: as §1
# [2] = Calcein leakage from model eukaryotic membranes; assay type: biochemical; settings: POPC/cholesterol = 1:1 LUVs (500 μM lipid), 64 to 256 μg/ml, 5 min; 100% = 1% Triton X-100; n = 3
# Protocol: Different lipids (Avanti Polar Linpids, Inc.) were used to prepare model membranes composed of POPC/ POPG (4:1 molar ratio) and POPC/cholesterol (1:1) by the extrusion method as previously described. POPC/POPG and POPC/cholesterol LUVs were used to mimic gram-negative bacterial and eukaryotic membranes, respectively. […] After incubation for 5 min, the fluorescence (F) (λexcitation = 492 nm, λemission = 518 nm) was measured on a microplate reader.
# murine erythrocytes = system: murine erythrocytes; set-up: method as in PMID 24816779; settings: 128 μg/ml; parent peptide; cited from earlier work
# [3] = system: Salmonella typhimurium ATCC14028; assay type: cell-based; settings: microbroth dilution, MH medium, 1 × 10^5 CFU/ml, 37 °C, 18–24 h; representative of three independent experiments
# Protocol: as §1
# [4] = system: Listeria ivanovii ATCC19119; assay type: cell-based; settings: microbroth dilution, MH medium, 1 × 10^5 CFU/ml, 37 °C, 18–24 h; representative of three independent experiments
# Protocol: as §1
# [5] = system: Pseudomonas aeruginosa CICC10419; assay type: cell-based; settings: microbroth dilution, MH medium, 1 × 10^5 CFU/ml, 37 °C, 18–24 h; representative of three independent experiments
# Protocol: as §1
# S. pullorum CVCC1802 = assay type: cell-based; settings: microbroth dilution, MH medium, 1 × 10^5 CFU/ml, 37 °C, 18–24 h; representative of three independent experiments
# Protocol: as §1
# S. choleraesuis CVCC503 = assay type: cell-based; settings: microbroth dilution, MH medium, 1 × 10^5 CFU/ml, 37 °C, 18–24 h; representative of three independent experiments
# Protocol: as §1
# [6] = system: Staphylococcus aureus ATCC43300; assay type: cell-based; settings: microbroth dilution, MH medium, 1 × 10^5 CFU/ml, 37 °C, 18–24 h; representative of three independent experiments
# Protocol: as §1
# S. pullorum CVCC1789 = assay type: cell-based; settings: microbroth dilution, MH medium, 1 × 10^5 CFU/ml, 37 °C, 18–24 h; representative of three independent experiments
# Protocol: as §1
# [7] = system: Enterococcus faecium CMCC1.2136; assay type: cell-based; settings: microbroth dilution, MH medium, 1 × 10^5 CFU/ml, 37 °C, 18–24 h; representative of three independent experiments
# Protocol: as §1
# S. suis CVCC606 = assay type: cell-based; settings: microbroth dilution, MH medium, 1 × 10^5 CFU/ml, 37 °C, 18–24 h; representative of three independent experiments
# Protocol: as §1
# [8] = system: Bacillus subtilis ATCC6633; assay type: cell-based; settings: microbroth dilution, MH medium, 1 × 10^5 CFU/ml, 37 °C, 18–24 h; representative of three independent experiments
# Protocol: as §1
# Escherichia coli CVCC195 = assay type: cell-based; settings: microbroth dilution, MH medium, 1 × 10^5 CFU/ml, 37 °C, 18–24 h; representative of three independent experiments
# Protocol: as §1
# E. coli CVCC1515 [9] = assay type: cell-based, Escherichia coli; settings: microbroth dilution, MH medium, 1 × 10^5 CFU/ml, 37 °C, 18–24 h; representative of three independent experiments
# Protocol: as §1
# [10] = system: E. coli CICC21530 (serotype O157:H7); assay type: cell-based, Escherichia coli; settings: microbroth dilution, MH medium, 1 × 10^5 CFU/ml, 37 °C, 18–24 h; representative of three independent experiments
# Protocol: as §1
# [11] = system: Candida albicans CGMCC2.2411; assay type: cell-based; settings: microbroth dilution, MH medium, 1 × 10^5 CFU/ml, 37 °C, 18–24 h; representative of three independent experiments
# P. aeruginosa CICC21630 = assay type: cell-based, Pseudomonas aeruginosa; settings: microbroth dilution, MH medium, 1 × 10^5 CFU/ml, 37 °C, 18–24 h; representative of three independent experiments
# Protocol: as §1
# E. coli CVCC1515 [12] = test: E. coli-induced peritonitis model, survival; assay type: in vivo, ICR mice; settings: 7 days, six mice per group
# Protocol: (§2) Mice injected with only bacteria or saline served as negative (untreated) or blank (unchallenged) controls, respectively. Survival of mice was recorded every 12 h and followed for 7 days.
# S. enteritidis CICC22956 = test: S. enteritidis-induced peritonitis model, survival; assay type: in vivo, ICR mice; settings: 7 days, six mice per group
# Protocol: as §2
# E. coli 0111:B4 LPS = test: LPS-induced endotoxemia model, survival; assay type: in vivo, C57BL/6 mice; settings: 7 days, six mice per group
# Protocol: Eight-week-old SPF male C57BL/6 mice (20 g ± 5 g, six mice per group) were injected intraperitoneally with E. coli 0111:B4 LPS (30 mg/kg body weight, Sigma). […] Mice injected with PBS were used as the negative control. The mouse survival rate was recorded for 7 days.
# TNF-α = test: LPS-induced cytokine release, serum ELISA; assay type: in vivo, C57BL/6 mice; settings: 15 mg/kg intraperitoneal 0.5 h after 10 mg/kg LPS; LPS control 394.9; mean, n = 3 per group
# Protocol: (§3) Blood was collected in a heparin sodium tube at 2 h or 8 h after LPS injection and incubated for 30 min at 37 °C and then overnight at 4 °C. After centrifugation at 3,000 rpm for 10 min at 4 °C, serum was collected from supernatant. The cytokine levels of TNF-α, IL-6 and IL-1β were detected by the Jiaxuan Biotech. Co. Ltd. (Beijing, China) using an enzyme linked immunosorbent assay (ELISA).
# IL-6 = test: LPS-induced cytokine release, serum ELISA; assay type: in vivo, C57BL/6 mice; settings: 15 mg/kg intraperitoneal 0.5 h after 10 mg/kg LPS; LPS control 1026.8; mean, n = 3 per group
# Protocol: as §3
# IL-1β = test: LPS-induced cytokine release, serum ELISA; assay type: in vivo, C57BL/6 mice; settings: 15 mg/kg intraperitoneal 0.5 h after 10 mg/kg LPS; LPS control 292.9; mean, n = 3 per group
# Protocol: as §3
substance,measurement,setting,value
"GFCWNVCVYRNGVRVCHRRCN (bicyclic or more) (disulfide 7-16, 3-20) [N1, parent marine peptide, variant of arenicin-3 (Tyr5 → Asn, Tyr17 → His) from the lugworm Arenicola marina, reference compound]",MIC,S. aureus ATCC25923,0.5 to 1 µg/mL
same,BC displacement percentage,[1],79.8%
same,MIC,S. enteritidis CVCC3377,0.25 µg/mL
same,calcein dye leakage,[2],2.5–25.3%
same,hemolysis,murine erythrocytes,3%
same,MIC,[3],0.5 µg/mL
same,MIC,[4],128 µg/mL
same,MIC,[5],2 µg/mL
same,MIC,S. pullorum CVCC1802,0.25 µg/mL
same,MIC,S. choleraesuis CVCC503,0.5 µg/mL
same,MIC,[6],16 µg/mL
same,MIC,S. pullorum CVCC1789,0.25 µg/mL
same,MIC,[7],>16 µg/mL
same,MIC,S. suis CVCC606,16 µg/mL
same,MIC,[8],0.25 µg/mL
same,MIC,Escherichia coli CVCC195,0.5 to 1 µg/mL
same,MIC,E. coli CVCC1515 [9],0.25 µg/mL
same,MIC,[10],0.5 µg/mL
same,MIC,[11],16 µg/mL
same,MIC,P. aeruginosa CICC21630,4 µg/mL
polymyxin B [PMB],survival rate,E. coli CVCC1515 [12]; 0.31 mg/kg intraperitoneal at 0.5 and 8 h after inoculation,66.7%
same,survival rate,E. coli CVCC1515 [12]; 0.625 mg/kg intraperitoneal at 0.5 and 8 h after inoculation,100%
same,BC displacement percentage,[1],89.3%
same,calcein dye leakage,[2],12.3–51.0%
same,survival rate,S. enteritidis CICC22956; 0.31 mg/kg intraperitoneal at 0.5 h and 8 h after challenge,83.3%
same,survival rate,S. enteritidis CICC22956; 0.625 mg/kg intraperitoneal at 0.5 h and 8 h after challenge,100%
same,survival rate,E. coli 0111:B4 LPS; 10 mg/kg intraperitoneal at 0.5 h and 8 h after LPS (30 mg/kg),16.7%
same,survival rate,E. coli 0111:B4 LPS; 15 mg/kg intraperitoneal at 0.5 h and 8 h after LPS (30 mg/kg),100%
same,serum level of TNF-α,TNF-α,74.0 pg/mL
same,serum level of IL-6,IL-6,514.9 pg/mL
same,serum level of IL-1β,IL-1β,242.8 pg/mL
